Patent US20060281813A1, “Methods of treating hyperproliferative cell disorders” (priority 2003, published 2006)
Several values for one entry are separate records, joined by “and”; a condition that tells them apart may be missing. Equal values may be shown once. Read-outs that look alike come from different tables or passages of the source.

What was measured:
[1] = tested on: F9 embryonal mouse teratocarcinoma cells; settings: all-trans RA-treated, differentiating F9 cells, 18 hour period; cited from earlier work
[2] = tested on: cutaneous T-cell lymphoma; settings: single patient, oral, with the VD analog calcitriol; cited from earlier work
[3] = tested on: retinoid receptor subtype; settings: competition with all-trans RA; cited from earlier work
[4] = tested on: lung cancer; experiment: Example 7: lung cancer patients with disease progression on IRESSA alone; assay type: in vivo, human; settings: added to IRESSA, oral 100 mg/square meter, optionally calcitriol 0.1-1 mcg per day
[5] = tested on: advanced head and neck cancer; experiment: Example 5: patients with advanced head and neck cancer; assay type: in vivo, human; settings: oral 100 mg/square meter with oral IRESSA or intravenous C-225
Excerpt: Current systemic chemotherapy regimens are unable to prolong survival of patients with advanced head and neck cancer.

[6] = tested on: lung cancer; experiment: Example 6: patients with lung cancer; assay type: in vivo, human; settings: oral 100 mg/square meter with oral IRESSA
[7] = tested on: breast cancer, prostate cancer or leukemia; experiment: Example 4: patients with breast cancer, prostate cancer or leukemia; assay type: in vivo, human; settings: oral 100 mg/square meter with oral IRESSA
[8] = tested on: colorectal cancer; settings: cited from earlier work
[9] = cited from earlier work; for peak 1,25-dihydroxyvitamin D serum concentration: healthy volunteers
[10] = cited from earlier work
[11] = tested on: non small cell lung cancer; experiment: Example 2: patient with non small cell lung cancer; assay type: in vivo, human
Description: A patient suffering from non small cell lung cancer was treated with IRESSA® (250 mg per day) for two months. The disease progressed during the treatment and thae patient was continued on IRESSA® (250 mg per day) with daily dosage of 4-oxo-retinol (75 mg per day) for two months. The disease became stable and the patient continued taking IRESSA® (250 mg per day) for 4 more months without 4-oxo-retinol with a stale disease.

[12] = tested on: refractory/progressive lung cancer; settings: single agent; cited from earlier work
[13] = tested on: ER+ or ER− tumor lines; settings: cited from earlier work
[14] = tested on: Xenopus laevis; settings: Xenopus laevis system; cited from earlier work
[15] = tested on: small cell lung cancer; experiment: Example 8: small cell lung cancer patients with disease progression on IRESSA alone; assay type: in vivo, human; settings: added to IRESSA about 250-500 mg per day; oral about 100 to 500 mg per day
[16] = up to 32 mcg/day for 3 months, patients with osteopetrosis
[17] = 4 mcg per day for 4 days, postmenopausal women
[18] = up to 2.7 mcg/day for 7 to 15 days, normal volunteers
[19] = tumors capable of producing 4-oxo-retinol
[20] = tumors that don't produce 4-oxo-retinol

CC1=C(/C=C/C(C)=C/C=C/C(C)=C/CO)C(C)(C)CCC1 [retinol, Retinol]
share of total retinol metabolized to 4-hydroxy-retinol and then 4-oxo-retinol [1]: 10-15%

COc1cc(C)c(/C=C/C(C)=C/C=C/C(C)=C/C(=O)O)c(C)c1C [acitretin]
clinical response [2]: complete remission

CC1=C(/C=C/C(C)=C/C=C/C(C)=C/CO)C(C)(C)CCC1O (centres unmarked) [4-hydroxy-retinol]
displacement of all-trans RA [3]: Neither compound efficiently displaced all-trans RA
tumor burden [4]: reduced tumor burden
survival rate versus IRESSA or C-225 alone [5]: better survival rate
tumor burden versus IRESSA alone [6]: reduced tumor burden
tumor burden versus IRESSA alone [7]: reduced tumor burden

CCc1c2c(nc3ccc(OC(=O)N4CCC(N5CCCCC5)CC4)cc13)-c1cc3c(c(=O)n1C2)COC(=O)[C@]3(O)CC [IRITONECAN®]
single-agent activity [8]: significant single-agent activity

C=C1/C(=C\C=C2/CCC[C@]3(C)[C@@H]([C@H](C)CCCC(C)(C)O)CC[C@@H]23)C[C@@H](O)C[C@@H]1O [calcitriol]
peak 1,25-dihydroxyvitamin D serum concentration ([9]; 2 mcg single oral dose): 0.235 nM and 0.351 nM
serum half life ([9]; in vivo): 3 to 6 h
time to peak serum concentration ([9]; in vivo): 2 h
peak 1,25-dihydroxyvitamin D serum concentration ([9]; single oral dose of 4 mcg): 0.42 nM
stable 1,25-dihydroxyvitamin D serum levels ([9]; up to 3 mcg/day for 6-12 days, normal volunteers): 0.184 to 0.235 nM
peak of stable serum levels of 1,25-dihydroxyvitamin D [9, 16]: 2.32 nM
hypercalcemia [10, 17]: no clinically significant hypercalcemia
patients with serum calcium above 10.8 [10, 17]: Four of the 27
urinary calcium excretion [10, 17]: increased
urinary hydroxyproline excretion [10, 17]: no increase
dose tolerated without hypercalcemia ([10]; given intermittently): ≤ 0.48 µg/kg
duration of hypercalcemic effect ([10]; in vivo): 3 to 5 days
time of maximal hypercalcemic effect ([10]; in vivo): 10 h
serum calcium ([10]; single oral dose of 4 mcg, healthy volunteers): no elevation
calcium absorption and excretion [10, 18]: increased
serum calcium [10, 18]: no significant elevations
patients with elevation in serum calcium ([10]; up to 3 mcg/day for 6-12 days, low calcium diet): None of the patients
hypercalcemia [10, 16]: no hypercalcemia

COc1cc2ncnc(Nc3ccc(F)c(Cl)c3)c2cc1OCCCN1CCOCC1 [IRESSA®, gefitinib]
disease course ([11]; 250 mg per day alone for two months): progressed
disease course ([11]; 250 mg per day for 4 more months without 4-oxo-retinol): stale disease
overall rate of response [12]: 10-15%

CC1=C(/C=C/C(C)=C/C=C/C(C)=C/C(=O)Nc2ccc(O)cc2)C(C)(C)CCC1 [N-(4-hydroxyphenyl)retinamide]
growth inhibition [13, 19]: growth inhibitory
growth inhibition [13, 20]: lack growth inhibitory effects

CC1=C(/C=C/C(C)=C/C=C/C(C)=C/C(=O)O)C(C)(C)CCC1 [all-trans RA, all-trans-retinoic acid]
growth inhibition [13, 19]: growth inhibitory
growth inhibition [13, 20]: lack growth inhibitory effects
ED50, teratogenicity [14]: ~100 nM

C=C(c1ccc(C(=O)O)cc1)c1cc2c(cc1C)C(C)(C)CCC2(C)C [bexarotene]
disease course [15]: stable disease or a reduced tumor burden
